From the supplement of paper PMC5770543
± gives the standard deviation.

What was measured:
[1] = test system: Plasmodium falciparum 3D7; experiment: EC50 growth inhibition (60 h, SYBR Green); conditions: stage: ring-stage start
[2] = test system: Toxoplasma gondii RH tachyzoites; experiment: % growth inhibition vs DMSO (48 h luciferase); higher = more inhibition; conditions: 10 µM;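 note: tested in triplicate wells of 96-well plates on confluent HFF monolayers, with 1% DMSO wells as negative control in four replicates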
[3] = test system: Plasmodium falciparum 3D7; experiment: % inhibition of schizont-to-ring transition vs DMSO; higher = more inhibition
Method in brief: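 Schizont-to-ring transition inhibition is the formation of new rings relative to vehicle controls. Tightly synchronised P. falciparum schizonts at about 40–42 hours post-invasion (1% parasitemia, 2.5% hematocrit, AlbuMAX-supplemented RPMI) were treated with compound at 1, 3 or 10 µM, alongside vehicle and positive controls. After glutaraldehyde fixation, Triton permeabilisation and Hoechst 33342 staining, at least 100,000 events were counted by flow cytometry, and values are the mean of three experiments.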

SMILES	EC50 growth inhibition [1]	% growth inhibition [2]	% inhibition of schizont-to-ring transition ([3]; 1 µM)	% inhibition of schizont-to-ring transition ([3]; 3 µM)	% inhibition of schizont-to-ring transition ([3]; 10 µM)
O=C(Nc1nc(-c2ccccn2)cs1)c1ccccc1Br	2160 nM	98.44 ± 0.08%	11%	13.5%	34.1%
CCOc1cccc2sc(N(Cc3cccnc3)C(=O)C3CCCCC3)nc12	4280 nM	29.9 ± 10%	35.3%	38.9%	56.6%
Cc1ccc2c(C)nc(Nc3nc(C)cc(-c4ccccc4)n3)nc2c1	6670 nM	70.4 ± 25%	17.7%	37.8%	55.7%
O=C(NCc1ccco1)C1CCN(S(=O)(=O)c2ccc(Cl)cc2)CC1	1030 nM	55.4 ± 6.6%	21.3%	34.6%	57.8%
COc1ccc2nc(C)cc(Nc3ccccc3O)c2c1	438 nM	22.7 ± 2.9%	20.4%	41.3%	66.3%
CCN1CCN(c2cc(C)c3cc(NC(=O)c4ccc(OC)c(OC)c4)ccc3n2)CC1	814 nM	56.5 ± 4.2%	21.3%	45.6%	63.3%
COc1ccc(CCN2CCC(CN(C)Cc3cnn(-c4ccccc4)c3)CC2)cc1	806 nM	63.1 ± 4.5%	15.4%	48.1%	63.7%
COc1ccccc1CNC(=O)CCn1c(=O)[nH]c2ccccc2c1=O	663 nM	79.9 ± 5.7%	8.85%	11.5%	18.6%
CCOc1ccc(C2N(C)c3ccccc3N2C)cc1	5840 nM	49.6 ± 43%	15.8%	20.8%	40.5%
CCN(CC)CCNc1ccnc2cc(Cl)ccc12	21.1 nM	45.2 ± 3.8%	73.3%	75.3%	77.3%
CC1CC(C)CN(C(=O)c2ccc(Cl)cc2Cl)C1 (stereo not drawn)	1020 nM	31.6 ± 5%	< 0%	< 0%	13.8%
COc1cccc(Cn2c(Oc3ccccc3)nc3c2c(=O)n(C)c(=O)n3C)c1	516 nM	72.4 ± 4.8%	23.6%	27.1%	45.9%
CC(C)CCNCC(O)Cn1c2ccccc2c2ccccc21 (stereo not drawn)	520 nM	77.4 ± 2.5%	9.61%	49.4%	71.7%
c1ccc2cc3c(Nc4ccc(N5CCOCC5)cc4)ccnc3cc2c1	2510 nM	60.2 ± 14%	36.9%	52.5%	60.8%
O=C(Nc1ccc(-c2nc3cc4ccccc4cc3[nH]2)cc1)c1cccc(Br)c1	4310 nM	50.3 ± 8.7%	10.2%	38.5%	61.9%
CCOC(=O)c1c[nH]c2c(CC)cccc2c1=O	3280 nM	29.3 ± 36%	28.5%	28.8%	40.9%

SMILES	EC50 growth inhibition [1]	% growth inhibition [2]	% inhibition of schizont-to-ring transition ([3]; 1 µM)	% inhibition of schizont-to-ring transition ([3]; 3 µM)	% inhibition of schizont-to-ring transition ([3]; 10 µM)
CC(=O)c1sc(NC(=O)Nc2ccc(C)cc2C)nc1C	1780 nM	67.5 ± 3.4%	10.5%	30.8%	49.7%
COc1ccc(-c2nc(NC(=O)CS(=O)(=O)c3ccc(F)cc3)sc2C)cc1	405 nM	69.4 ± 1.6%	9.86%	32.3%	43.6%
COCCn1c(C)nc2ccccc2c1=O	1520 nM	57.4 ± 3.5%	6.75%	13.7%	31.5%
CCC(C)NCC(O)(c1ccc(Cl)cc1)c1ccc(Cl)cc1 (stereo not drawn)	632 nM	74.6 ± 8.3%	38.4%	57%	63.8%
Cc1cccc(-n2ncc3c(O)nc(-n4nc(C)cc4NC(=O)c4cc5ccccc5o4)nc32)c1		30.2 ± 52%	16.7%	23.7%	27.8%
CC(C)(C)c1ccc(C(=O)Nc2c3c(nn2-c2cccc(Cl)c2)CSC3)cc1		46.7 ± 4.1%	15.4%	19.9%	32.6%
CCCCc1ccc(NS(=O)(=O)c2cc3c4c(c2)CCN4C(=O)CC3)cc1		36.5 ± 32%	12%	12.8%	34.4%
FC(F)(F)c1cccc(Nc2nc(-c3ccccc3)nc3ncccc23)c1		51.1 ± 1.4%	24.9%	33.8%	42.3%
CCOC(=O)C1=C(C)N=c2sc(=Cc3cc(Cl)ccc3O)c(=O)n2C1c1ccc(OC)cc1 (stereo not drawn)		59.4 ± 6.4%	0.526%	46.2%	61.3%
COc1ccc(C(=O)NC(c2ccc(Cl)cc2Cl)c2cc(Cl)c3cccnc3c2O)cc1 (stereo not drawn)		32.1 ± 5.2%	19.2%	19.5%	25.5%
CN1CCN(c2c3c(c(C#N)c4nc5ccccc5n24)CCC3)CC1		39.4 ± 4.5%	< 0%	5.66%	21.3%
Cc1ccccc1OCCSc1nc2ccc(NC(=O)c3ccccc3)cc2s1		29.6 ± 11%	32%	33%	43.1%
COc1ccc(C2=C(c3ccc(OC)cc3)C3(c4ccccc4)C(=O)C2(c2ccccc2)C2C(=O)N(c4ccc(C)cc4)C(=O)C23)cc1 (stereo not drawn)		41.5 ± 7.4%	< 0%	< 0%	24.9%
O=C(Nc1ccc(-c2nc3cc(NC(=O)c4ccc(Cl)cc4)ccc3[nH]2)cc1)c1ccc(Cl)cc1		21.6 ± 3%	< 0%	18.9%	41.1%
COc1ccc2nc(N)nc(C)c2c1		41.7 ± 16%	2.26%	6.22%	17.5%
CCC(=O)Nc1nnc(Cc2ccc(OC)c(OC)c2)s1		56.6 ± 7.6%	4.3%	5.07%	13.6%
